Results reported in patent US11274131B2, “IgM-mediated receptor clustering and cell modulation” (MAYO FOUNDATION FOR MEDICAL EDUCATION AND RESEARCH, priority 2007, dated 2022).

System: OT-II CD4+CD25+ Treg cells
Test: Conversion of OT-II Tregs to Th17 phenotype by antibody-treated DCs
Type: cell-based, mouse
Description: FIG. 16 is a series of plots showing conversion of OT-II CD4 Treg cells to a Th17 phenotype by co-incubation with DCs expressing the Kb-peptide constructs treated with MTabs. OT-II CD4+CD25+ splenic Tregs were isolated by MACS and added 1:1 to DCs pulsed with Ovalbumin and treated with hIgM12, hIgM22, or 28-13-3. After 48 hours, the T cells were harvested, stained with CD4, and internally stained with FoxP3 PE and IL-17 APC. Expression was assayed by flow cytometry, and cells were gated on CD4.
This was measured by loss of FoxP3 expression and gain of IL-17 expression, corresponding to loss of a repressive phenotype and gain of an effector phenotype. Studies were conducted to compare the ability of wild type DCs or B7DC−/− B7DC reconstituted DCs to B7DC−/− transduced with the Kb-peptide constructs to convert Tregs to Th17 polarized T cells. DCs were pulsed with 10 ug/mL ovalbumin and treated with 10 ug/mL of either hIgM12, hIgM22, or 28-13-3, 24 hours prior to addition of T cells. Splenic OT-II Tregs were isolated by MACs and added to DC cultures at a 1:1 ratio. After 48 hours of co-incubation, T cells were harvested, stained with CD4 PerCP, and permeabilized and stained with FoxP3 PE and IL-17 APC. Samples were run by flow cytometry and cells were gated by high CD4 expression. Conversion was measured by loss of FoxP3 expression and gain of IL-17 expression.

In the case of “B7-DC XAb: human monoclonal IgM from a Waldenstrom's macroglobulinemia patient that binds and cross-links B7-DC on DC”, the “conversion of Tregs to Th17 polarized cells” value (knockout DCs expressing Kb-12p9A) is reported as “responded” and the “conversion of Tregs to Th17 polarized cells” value (wild type DCs and B7DC reconstituted knockouts, 10 ug/mL) is reported as “converted Tregs to Th17 polarized cells”.
